The values that follow come from PMC5634933 (Biochemistry, 2017).

Like-named read-outs stand apart in the source and are kept apart here.

Common to all, as to assay type: biochemical
The target of one experiment is I260M pol β (Homo sapiens, UniProt P06746, I260M). As to conditions: for Kd / kpol: 37 °C.
Experiment [1] has as its target WT pol β (Homo sapiens, UniProt P06746). As to conditions: WT; for Kd / kpol: 37 °C.
In experiment [2] the test system is WT pol β. As to conditions: D kpol WT analogue/D kpol I260M analogue.
Setting [3] is: I260M, A-G: misincorporation of dGTP (analogue) opposite template A.
[4] abbreviates: A-G: misincorporation of dGTP (analogue) opposite template A.
The mark [5] stands for this setting: I260M, A-T: correct incorporation of dTTP (analogue) opposite template A.
Setting [6] is: A-T: correct incorporation of dTTP (analogue) opposite template A.

As a reminder, the Kd is the concentration at which binding is half-saturated. Read a high Kd as lower affinity. In the case of `Nc1nc2c(ncn2[C@H]2C[C@H](O)[C@@H](COP(=O)(O)OP(=O)(O)OP(=O)(O)O)O2)c(=O)[nH]1` [A-G O, dGTP, reference compound], on I260M pol β (setting [3]), the “Efficiency (kpol/Kd)” value came to 18 ± 9.1 M⁻¹ s⁻¹, the Kd was 795 ± 373 µM and the kpol is 0.014 ± 0.003 s⁻¹. Also, on WT pol β [1] (setting [4]), the “Efficiency (kpol/Kd)” value turned out to be 22 ± 8.5 M⁻¹ s⁻¹, binding was characterised by a dissociation constant (Kd) of 626 ± 220 µM and the kpol was found to be 0.014 ± 0.002 s⁻¹.

In the case of `Cc1cn([C@H]2C[C@H](O)[C@@H](COP(=O)(O)OP(=O)(O)CP(=O)(O)O)O2)c(=O)[nH]c1=O` [A-T CH2, β,γ-CH2 dTTP], at I260M pol β (setting [5]), the “Efficiency (kpol/Kd)” value amounted to 60000 ± 20000 M⁻¹ s⁻¹, the Kd was found to be 5 ± 1.5 µM and the kpol is 0.30 ± 0.01 s⁻¹. Moreover, at WT pol β [1] (setting [6]), the “Efficiency (kpol/Kd)” value was determined as 120000 ± 30000 M⁻¹ s⁻¹; the affinity, expressed as Kd, was 6.7 ± 1.8 µM; the kpol amounted to 0.80 ± 0.10 s⁻¹.

Take `Cc1cn([C@H]2C[C@H](O)[C@@H](COP(=O)(O)OP(=O)(O)OP(=O)(O)O)O2)c(=O)[nH]c1=O` [A-T O, dTTP, reference compound]: the “Efficiency (kpol/Kd)” value at I260M pol β (setting [5]) was 200000 ± 80000 M⁻¹ s⁻¹; on WT pol β [1] (setting [6]), 1.22e+06 ± 140000 M⁻¹ s⁻¹. Further, the Kd on I260M pol β (setting [5]) is 40.1 ± 15.5 µM; on WT pol β [1] (setting [6]), 10.5 ± 1.1 µM. Moreover, the kpol on I260M pol β (setting [5]) worked out at 7.90 ± 1.30 s⁻¹; at I260M pol β (I260M, A-T: correct incorporation of dTTP (analogue) opposite template A, listed as dTTP), 7.9 s⁻¹; on WT pol β [1] (setting [6]), 12.8 ± 0.60 s⁻¹; at WT pol β [1] (A-T: correct incorporation of dTTP (analogue) opposite template A, listed as dTTP) it was 12.8 s⁻¹. Besides, at I260M pol β (correct parent dTTP), the “Kd of I260M relative to WT (fold higher)” value came out at 4 fold.

For the molecule CHCl, the “D kpol (analogue/parent)” value at I260M pol β (I260M, D kpol analogue/D kpol parent) is given as 1.0; on WT pol β [1] (D kpol analogue/D kpol parent), 0.9. Besides, the “F (analogue/parent)” value at I260M pol β (I260M, F analogue/F parent) stood at 0.6; on WT pol β [1] (F analogue/F parent), 0.5. Moreover, the “F analogue (fidelity)” value on I260M pol β (I260M, dTTP (correct) vs dGTP (incorrect) analogue opposite template A) was found to be 7060; on WT pol β [1] (dTTP (correct) vs dGTP (incorrect) analogue opposite template A), 27818. Also, the “D kpol(c/i) analogue” value amounted to 551.7 on I260M pol β (I260M, discrimination at kpol = kpol(correct)/kpol (incorrect)) and 842.9 on WT pol β [1] (discrimination at kpol = kpol(correct)/kpol (incorrect)). Besides, at I260M pol β ([F I260M(analogue)]/[F WT (analogue)]), the I260M/WT analogue is 0.3. For the same molecule, the “I260M/WT (analogue/parent)” value on I260M pol β ([F I260M(analogue/parent)]/[F WT (analogue/parent)]) is 1.3. For the same molecule, the “D kpol analogue WT/I260M” value in the experiment on WT pol β [2] turned out to be 1.5.
